Laboratory results as given in patent publication EP0039085A1, “Process for increasing the solubility of aromatic systems” (Langhals, Heinz, Dr., priority 1980, dated 1981).

Key:
[1] = Absolute fluorescence quantum yield; format: physicochemical
[2] = Solubility in organic solvents: effect of tert-butyl substitution; format: physicochemical; details: for Löslichkeitssteigerung um einen Faktor: relative to unsubstituted Rubicen (I)
Source text: Der Einfluß der Substitution mit tert.-Butylgruppen wurde an folgenden Systemen untersucht.

CC(C)(C)c1ccccc1N1C(=O)c2ccc3c4ccc5c6c(ccc(c7ccc(c2c37)C1=O)c64)C(=O)N(c1ccccc1C(C)(C)C)C5=O [Beispiel 3, N,N'-Di-(2-tert.-butyl)-perylen-3,4,9,10-tetracarbonsäure-diimid]
Fluoreszenzquantenausbeute (absolut) η ([1]; Chloroform): 1,0 | Fluoreszenzquantenausbeute (absolut) η ([1]; Dimethylformamid (DMF)): 0,94

Tetra-tert.-butylrubicen
erhöhte die Löslichkeit um einen Faktor ([2]; solvent not restated (preceding sentence: Äthanol und n-Hexan bei Zimmertemperatur), relative to Rubicen): ca. 10

CC(C)(C)c1ccc(N2C(=O)c3ccc4c5ccc6c7c(ccc(c8ccc(c3c48)C2=O)c75)C(=O)N(c2ccc(C(C)(C)C)cc2)C6=O)cc1 [Beispiel 4, N,N'-Di-(4-tert.-butylphenyl)-perylen-3,4,9,10-tetra-carbonsäurediimid]
Fluoreszenzquantenausbeute (absolut) η ([1]; Dimethylformamid (DMF)): 0,88

O=C1c2ccc3c4ccc5c6c(ccc(c7ccc(c2c37)C(=O)N1c1ccccc1)c64)C(=O)N(c1ccccc1)C5=O [III, reference compound]
Löslichkeit ([2]; in organischen Lösungsmitteln): sehr geringe

Di-tert.-butylrubicen
Löslichkeitssteigerung um einen Faktor ([2]; in n-Hexan bei Zimmertemperatur): ca. 100 | Löslichkeitssteigerung um einen Faktor ([2]; in Äthanol bei Zimmertemperatur): ca. 100
